Laboratory results from patent US9096560B2, “5-heterocyclylalkyl-3-hydroxy-2-phenylcyclopent-2-enones as herbicides” (Syngenta Limited, priority 2008, dated 2015).

What was measured:
Format in all cases: in vivo
[1] = test system: Echinochloa crus-galli (ECHCG); test: Example B pre-emergence herbicidal test, ECHCG; details: Echinochloa crus-galli, 312 h, rate 250 g/ha, evaluated after 13 days, 100=total damage to plant, 0=no damage to plant
Method in brief: (§1)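 Plants were rated 13 days after treatment, 0 = no damage to 100 = total damage. They were grown in a glasshouse at 24/16 °C, 14 h light, 65% humidity and watered twice daily. Pre-emergence spray was applied one day after sowing, formulated in acetone/water 50:50 with 0.5% Tween 20.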

[2] = test system: Avena fatua (AVEFA); test: Example B pre-emergence herbicidal test, AVEFA; details: Avena fatua, 312 h, rate 250 g/ha, evaluated after 13 days, 100=total damage to plant, 0=no damage to plant
Method in brief: as §1

[3] = test system: Alopecurus myosuroides (ALOMY); test: Example B post-emergence herbicidal test, ALOMY; details: Alopecurus myosuroides, 312 h, rate 250 g/ha, evaluated after 13 days, scale 0-100, read-out: Post-emergence activity ALOMY (100=total damage to plant; 0=no damage to plant)
Method in brief: (§2)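 Plants grown 8 days in glasshouse (24/16 °C day/night, 14 h light, 65% humidity), then sprayed with aqueous solution from acetone/water (50:50) formulation with 0.5% Tween 20. Damage scored 13 days later on a 0–100 scale (100 = total damage).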

[4] = test system: Lolium perenne (LOLPE); test: Example B post-emergence herbicidal test, LOLPE; details: Lolium perenne, 312 h, rate 250 g/ha, evaluated after 13 days, scale 0-100, read-out: Post-emergence activity LOLPE (100=total damage to plant; 0=no damage to plant)
Method in brief: as §2

[5] = test system: Lolium perenne (LOLPE); test: Example B pre-emergence herbicidal test, LOLPE; details: Lolium perenne, 312 h, rate 250 g/ha, evaluated after 13 days, 100=total damage to plant, 0=no damage to plant
Method in brief: as §1

[6] = test system: Echinochloa crus-galli (ECHCG); test: Example B post-emergence herbicidal test, ECHCG; details: Echinochloa crus-galli, 312 h, rate 250 g/ha, evaluated after 13 days, scale 0-100, read-out: Post-emergence activity ECHCG (100=total damage to plant; 0=no damage to plant)
Method in brief: as §2

[7] = test system: Avena fatua (AVEFA); test: Example B post-emergence herbicidal test, AVEFA; details: Avena fatua, 312 h, rate 250 g/ha, evaluated after 13 days, scale 0-100, read-out: Post-emergence activity AVEFA (100=total damage to plant; 0=no damage to plant)
Method in brief: as §2

[8] = test system: Alopecurus myosuroides (ALOMY); test: Example B pre-emergence herbicidal test, ALOMY; details: Alopecurus myosuroides, 312 h, rate 250 g/ha, evaluated after 13 days, 100=total damage to plant, 0=no damage to plant
Method in brief: as §1

## Cc1cc(C)c(C2C(=O)CC(CC3CCN(C(=O)OC(C)(C)C)CC3)C2=O)c(C)c1 (centres unmarked) [Compound T55]
[1]
  pest or weed control at 250 g/ha: 90%
[2]
  pest or weed control at 250 g/ha: 60%
[3]
  pest or weed control at 250 g/ha: 70%
[4]
  pest or weed control at 250 g/ha: 60%
[5]
  pest or weed control at 250 g/ha: 100%
[6]
  pest or weed control at 250 g/ha: 70%
[7]
  pest or weed control at 250 g/ha: 50%
[8]
  pest or weed control at 250 g/ha: 80%

## CCc1cc(C)cc(C)c1C1C(=O)CC(CCC2CCOCC2)C1=O (centres unmarked) [Compound T58]
[1]
  pest or weed control at 250 g/ha: 100%
[2]
  pest or weed control at 250 g/ha: 90%
[3]
  pest or weed control at 250 g/ha: 100%
[4]
  pest or weed control at 250 g/ha: 90%
[5]
  pest or weed control at 250 g/ha: 100%
[6]
  pest or weed control at 250 g/ha: 100%
[7]
  pest or weed control at 250 g/ha: 90%
[8]
  pest or weed control at 250 g/ha: 90%

## CCc1cc(C)cc(C)c1C1C(=O)C/C(=C\C2CCOC2)C1=O (centres unmarked) [Compound T59]
[1]
  pest or weed control at 250 g/ha: 100%
[2]
  pest or weed control at 250 g/ha: 90%
[3]
  pest or weed control at 250 g/ha: 90%
[4]
  pest or weed control at 250 g/ha: 100%
[5]
  pest or weed control at 250 g/ha: 100%
[6]
  pest or weed control at 250 g/ha: 90%
[7]
  pest or weed control at 250 g/ha: 100%
[8]
  pest or weed control at 250 g/ha: 90%

## Cc1cc(C)c(C2C(=O)CC(CC3CCN(c4ccc(Cl)cc4)CC3)C2=O)c(C)c1 (centres unmarked) [Compound T60]
[1]
  pest or weed control at 250 g/ha: 0%
[2]
  pest or weed control at 250 g/ha: 0%
[3]
  pest or weed control at 250 g/ha: 30%
[4]
  pest or weed control at 250 g/ha: 20%
[5]
  pest or weed control at 250 g/ha: 10%
[6]
  pest or weed control at 250 g/ha: 10%
[7]
  pest or weed control at 250 g/ha: 10%
[8]
  pest or weed control at 250 g/ha: 10%

## Cc1cc(-c2ccc(F)cc2)cc(C)c1C1C(=O)C/C(=C\C2CCOCC2)C1=O (centres unmarked) [Compound T61]
[1]
  pest or weed control at 250 g/ha: 90%
[2]
  pest or weed control at 250 g/ha: 80%
[3]
  pest or weed control at 250 g/ha: 90%
[4]
  pest or weed control at 250 g/ha: 90%
[5]
  pest or weed control at 250 g/ha: 90%
[6]
  pest or weed control at 250 g/ha: 100%
[7]
  pest or weed control at 250 g/ha: 100%
[8]
  pest or weed control at 250 g/ha: 70%

## Cc1cc(-c2ccc(F)cc2)cc(C)c1C1C(=O)CC(CC2CCOCC2)C1=O (centres unmarked) [Compound T63]
[1]
  pest or weed control at 250 g/ha: 100%
[2]
  pest or weed control at 250 g/ha: 90%
[3]
  pest or weed control at 250 g/ha: 90%
[4]
  pest or weed control at 250 g/ha: 90%
[5]
  pest or weed control at 250 g/ha: 100%
[6]
  pest or weed control at 250 g/ha: 90%
[7]
  pest or weed control at 250 g/ha: 100%
[8]
  pest or weed control at 250 g/ha: 70%

## Cc1cc(-c2ccc(F)c(Cl)c2)cc(C)c1C1C(=O)C/C(=C\C2CCOCC2)C1=O (centres unmarked) [Compound T65]
[1]
  pest or weed control at 250 g/ha: 100%
[2]
  pest or weed control at 250 g/ha: 80%
[3]
  pest or weed control at 250 g/ha: 90%
[4]
  pest or weed control at 250 g/ha: 90%
[5]
  pest or weed control at 250 g/ha: 80%
[6]
  pest or weed control at 250 g/ha: 100%
[7]
  pest or weed control at 250 g/ha: 100%
[8]
  pest or weed control at 250 g/ha: 70%

## Cc1cc(C)c(C2C(=O)CC(CC3CCN(C(=O)Oc4ccccc4)CC3)C2=O)c(C)c1 (centres unmarked) [Compound T68]
[1]
  pest or weed control at 250 g/ha: 50%
[2]
  pest or weed control at 250 g/ha: 40%
[3]
  pest or weed control at 250 g/ha: 60%
[4]
  pest or weed control at 250 g/ha: 90%
[5]
  pest or weed control at 250 g/ha: 90%
[6]
  pest or weed control at 250 g/ha: 90%
[7]
  pest or weed control at 250 g/ha: 90%
[8]
  pest or weed control at 250 g/ha: 30%

## CCCCOC(=O)N1CCC(CC2CC(=O)C(c3c(C)cc(C)cc3C)C2=O)CC1 (centres unmarked) [Compound T69]
[1]
  pest or weed control at 250 g/ha: 20%
[2]
  pest or weed control at 250 g/ha: 10%
[3]
  pest or weed control at 250 g/ha: 30%
[4]
  pest or weed control at 250 g/ha: 30%
[5]
  pest or weed control at 250 g/ha: 10%
[6]
  pest or weed control at 250 g/ha: 20%
[7]
  pest or weed control at 250 g/ha: 30%
[8]
  pest or weed control at 250 g/ha: 0%

## Cc1cc(C)c(C2C(=O)CC(CC3CCN(C(=O)c4ccccc4)CC3)C2=O)c(C)c1 (centres unmarked) [Compound T70]
[1]
  pest or weed control at 250 g/ha: 60%
[2]
  pest or weed control at 250 g/ha: 70%
[3]
  pest or weed control at 250 g/ha: 70%
[4]
  pest or weed control at 250 g/ha: 80%
[5]
  pest or weed control at 250 g/ha: 70%
[6]
  pest or weed control at 250 g/ha: 80%
[7]
  pest or weed control at 250 g/ha: 100%
[8]
  pest or weed control at 250 g/ha: 20%
